Measured values published in patent US12350246B2 (Cancer Prevention Pharmaceuticals, Inc., priority 2015, dated 2025).
Where a name gives a salt, the structure may show the parent alone. Values belong to the compound of their own block, whether it stands above or below them.

Key:
COX = conditions: cited from earlier work
[1] = in vivo; cited from earlier work
[2] = Drug excipient compatibility: XRPD; type: physicochemical; conditions: 40° C./75% RH, four weeks
Description: A non-cGMP drug excipient compatibility study for eflornithine HCl/sulindac combination tablet was conducted. Appearance, HPLC Assay and XRPD properties were evaluated using a series of samples. The excipients that were tested included PVP, HPMC, lactose, EXPLOTAB™, Ac-Di-Sol®, PROSOLV®, STARCH 1500®, and OPADRY® Yellow. […] Total mass of most samples was approximately 750 mg. Preparation involved weigh off of components into 20cc scintillation vials, closed and vortexed for approximately 30 seconds. The samples were then stored in a 40° C./75% RH stability chamber for four weeks. Lids on the vials were loosely secured and were protected from light while stored in the chamber. XRPD analysis was conducted on a Bruker AXS D8 Advance system with a Bragg-Brentano configuration using the CuKα radiation. Samples were analyzed at room temperature using the following parameters: 40 kV, 40 mA, 1° divergence and antiscatter slits, a method measuring in continuous mode from 2-40°2Θ with a 0.05° step and 1 second/step time. Between 3 and 25 mg of sample was analyzed using a rotating, top-filled steel sample holder in a nine-position auto-sampler accessory. The system was calibrated using traceable standards.

[3] = Drug excipient compatibility: appearance and HPLC assay; type: physicochemical; conditions: 40° C./75% RH, four weeks
Description: A non-cGMP drug excipient compatibility study for eflornithine HCl/sulindac combination tablet was conducted. Appearance, HPLC Assay and XRPD properties were evaluated using a series of samples. The excipients that were tested included PVP, HPMC, lactose, EXPLOTAB™, Ac-Di-Sol®, PROSOLV®, STARCH 1500®, and OPADRY® Yellow. […] Total mass of most samples was approximately 750 mg. Preparation involved weigh off of components into 20cc scintillation vials, closed and vortexed for approximately 30 seconds. The samples were then stored in a 40° C./75% RH stability chamber for four weeks. Lids on the vials were loosely secured and were protected from light while stored in the chamber. Appearance observations were conducted by visual examination of the vials prepared for HPLC analysis. […] Excipient compatibility samples were analyzed using a method capable of detecting both actives, cflornithine and sulindac (FIG. 4A). The method employs a gradient reverse phase HPLC with Ultraviolet (UV) detection at 195 nm.

[4] = system: tumors harboring Ki-ras mutations; conditions: reduced from 90%; cited from earlier work
tumor putrescine levels = conditions: eflornithine infusion, without suppressing peripheral platelet counts; cited from earlier work
[5] = system: prostoglandin E2 (PGE2) levels in flat mucosa; conditions: 300 mg/day, one month; cited from earlier work
[6] = cited from earlier work
[7] = in vivo; cited from earlier work; remark: listed apart in the source

SMILES: CC1=C(CC(=O)O)c2cc(F)ccc2/C1=C\c1ccc(S(C)(=O)=O)cc1 [Sulindac sulfone]
COX-inhibitory activity (COX): lacks COX-inhibitory activity

SMILES: Cc1ccc(-c2cc(C(F)(F)F)nn2-c2ccc(S(N)(=O)=O)cc2)cc1 [celecoxib, 4-[5-(4-Methylphenyl)-3-(trifluoromethyl)pyrazol-1-yl]benzenesulfonamide]
Increase in rates of heart and blood vessel disease [1]: 30% | Risks of gastrointestinal side effects [1]: greater than 80%

Compatibility with excipients (XRPD) [2]: compatible with the potential excipients | Compatibility with excipients (appearance, HPLC assay) [3]: compatible with the potential excipients
SMILES: NCCCC(N)(C(=O)O)C(F)F (stereo not drawn) [eflornithine HCl]

SMILES: NCCCC(N)(C(=O)O)C(F)F (stereo not drawn) [eflornithine, 2,5-diamino-2-(difluoromethyl)pentanoic acid]
Tumors harboring Ki-ras mutations [4]: 36% | Decrease in tumor putrescine levels (tumor putrescine levels): 90%

SMILES: CC(C)Cc1ccc(C(C)C(=O)O)cc1 (stereo not drawn) [ibuprofen]
PGE2 levels in flat mucosa [5]: significant decrease

SMILES: CN1C(C(=O)Nc2ccccn2)=C(O)c2ccccc2S1(=O)=O [piroxicam, 4-hydroxy-2-methyl-N-2-pyridyl-2H-1,2-benzothiazine-3-carboxamide 1,1-dioxide]
Tumors harboring Ki-ras mutations [4]: 25%

Compatibility with excipients (XRPD) [2]: compatible with the potential excipients | Compatibility with excipients (appearance, HPLC assay) [3]: compatible with the potential excipients
SMILES: CC1=C(CC(=O)O)c2cc(F)ccc2/C1=C\c1ccc([S+](C)[O-])cc1 (stereo not drawn) [sulindac, (Z)-5-fluoro-2-methyl-1-((4-(methylsulfinyl)phenyl)methylene)-1H-indene-3-acetic acid]
Fraction of the drug absorbed ([6]; after oral administration): about 90% | Time to peak plasma levels ([6]; fasting patients): about 2 hours | Mild gastrointestinal effects, patients affected [7]: ~20% | Skin rash and pruritus, patients affected [7]: 5%
